Assays:
Type in all cases: in vivo
Conditions in all cases: alone
[1] = tested on: diamondback moth, Plutella xylostella; test: Cabbage plant track-sprayer bioassay against second instar diamondback moth
Description: (§1) The method described in Colby S. R., “Calculating Synergistic and Antagonistic Responses of Herbicide Combinations,” Weeds, 1967, 15, 20-22 was used to determine an existence of synergic effect between the chloride channel activator compound and the pesticide (I), (II), or any agriculturally acceptable salt thereof in the formulated pesticidal composition. In this method, the percent insect control of the formulated pesticidal composition as observed in the study was compared to the “expected” percent control (E) as calculated by equation (1) (hereinafter “Colby's equation”) below: […]
Bioassays were performed for different active compounds. Cabbage plants with about two to three new-growth-true leaf stage were treated with different active compounds using a track sprayer application at 400 L/Ha spray volume. Three second instar diamondback moth, Plutella xylostella, were infested onto each leaf disc. The percent control of the pesticidal composition against diamondback moth, Plutella xylostella, was determined as the “Observed” action, and compared to those obtained by using about 0.0025 weight % of compound II, and using about 0.000078 weight % of emamectin benzoate alone. The “Colby's Expected Action” was calculated using Colby's equation as discussed previously.
Bioassays were performed wherein different active compounds were tested against diamondback moth, Plutella xylostella, using the procedure described in example 5A.

[2] = tested on: Western plant bug, Lygus hesperus; test: Treated bean piece bioassay against third-instar nymphs of Western plant bug
Description: as §1
The active compounds were formulated in a 10% acetone solution with 0.025% non-ionic surfactant, TWEEN® 20. Bioassays were performed for each different active solution. Bean pieces (about one inch-long) were used for the tests. Four bean pieces were placed in each tested active solution and left there for 10 minutes. Bean pieces were taken out of the active solution, and each piece was placed in a well in a 32-well tray and allowed to air dry. Three third-instar nymphs of Western plant bug, Lygus hesperus, were infested into each well. The percent control of the pesticidal composition against Lygus hesperus bug was determined as the “Observed” action, and compared to those obtained by using about 0.04 weight % of compound I, and using about 0.20 weight % of emamectin benzoate alone. The “Colby's Expected Action” was calculated using Colby's equation as discussed previously.

[3] = tested on: South American brown stink bug, Euschistus heros; test: Treated bean piece bioassay against third-instar nymphs of South American brown stink bug
Description: as §1
The active compounds were formulated in a 10% acetone solution with 0.025% non-ionic surfactant, TWEEN® 20. Bioassays were performed for each different active solution. Bean pieces (about one inch-long) were used for the tests. Four bean pieces were placed in each tested active solution and left there for 10 minutes. […]
The percent control of the pesticidal composition against South American brown stink bug, Euschistus heros, was determined as the “Observed” action, and compared to those obtained by using about 0.04 weight % of compound I, and using about 0.000156 weight % of emamectin benzoate alone. The “Colby's Expected Action” was calculated using Colby's equation as discussed previously.

Compound	% Control Three Days After Treatment ([1]; dose rate 0.000625 weight %)	% Control Three Days After Treatment ([2]; dose rate 0.04 weight %) [%]	% Control Three Days After Treatment ([2]; dose rate 0.04 weight %, listed as compound I)	% Control Four Days After Treatment ([3]; dose rate 0.04 weight %) [%]	% Control Three Days After Treatment ([1]; dose rate 0.000039 weight %) [%]	% Control Three Days After Treatment ([1]; dose rate 0.000078 weight %) [%]	% Control Three Days After Treatment ([2]; dose rate 0.20 weight %) [%]	% Control Three Days After Treatment ([2]; dose rate 0.20 weight %, listed as emamectin benzoate)	% Control Four Days After Treatment ([3]; dose rate 0.000156 weight %) [%]
CCN(C(=O)CCSCCC(F)(F)F)c1cn(-c2cccnc2)nc1Cl [Compound I, N-(3-chloro-1-(pyridin-3-yl)-1H-pyrazol-4-yl)-N-ethyl-3-((3,3,3-trifluoropropyl)thio)propanamide]	no control	0	no control	8	–	–	–	–	–
emamectin benzoate	–	–	–	–	73.91	91.3	0	no control	25

Source: patent US9497967B2, “Synergistic pesticidal compositions and related methods” (Dow AgroSciences LLC, priority 2013, dated 2016)
